Data reported in patent US8217023B2, “19-nor-vitamin D analogs with 1,2- or 3,2-cyclopentene ring” (Wisconsin Alumni Research Foundation, priority 2009, dated 2012).
Entries after “also recorded” stand apart in the source; their conditions may differ. Read-outs that look alike come from different tables or passages of the source.

Columns and labels:
[1] = tested on: Human promyelocytic leukemia (HL60) cells; test: HL-60 differentiation (nitro blue tetrazolium reduction); format: cell-based; conditions: for EC50: HL-60 cells into monocytes, read-out: EC50, HL-60 cell differentiation
Procedure: The study drugs were dissolved in ethanol and the concentrations determined using UV spectrophotometry. Serial dilutions were prepared so that a range of drug concentrations could be tested without changing the final concentration of ethanol (≦0.2%) present in the cell cultures.
Human promyelocytic leukemia (HL60) cells were grown in RPMI-1640 medium containing 10% fetal bovine serum. The cells were incubated at 37° C. in the presence of 5% CO2.
HL60 cells were plated at 1.2×10^5 cells/ml. Eighteen hours after plating, cells in duplicate were treated with drug. Four days later, the cells were harvested and a nitro blue tetrazolium reduction assay was performed (Collins et al., 1979; J. Exp. Med. 149:969-974). The percentage of differentiated cells was determined by counting a total of 200 cells and recording the number that contained intracellular black-blue formazan deposits. Verification of differentiation to monocytic cells was determined by measuring phagocytic activity (data not shown).

[2] = tested on: 24-hydroxylase (24Ohase) gene promoter in ROS 17/2.8 (bone) cells; test: In vitro transcription assay (24-hydroxylase promoter luciferase reporter); format: cell-based; conditions: for EC50: 24-hydroxylase (CYP-24) promoter driving luciferase reporter, read-out: EC50, transcriptional activity in bone cells; for transcriptional activity in bone cells (in words): FIG. 3
Procedure: Transcription activity was measured in ROS 17/2.8 (bone) cells that were stably transfected with a 24-hydroxylase (24Ohase) gene promoter upstream of a luciferase reporter gene (Arbour et al., 1998). Cells were given a range of doses. Sixteen hours after dosing the cells were harvested and luciferase activities were measured using a luminometer.
RLU=relative luciferase units.

[3] = biological target: T1, full-length recombinant rat vitamin D receptor (Rattus norvegicus, UniProt P13053); test: Vitamin D receptor binding (competition with [3H]-1,25(OH)2D3)
T1 construct: Full-length recombinant rat receptor was expressed in E. coli; histidine tag (C); made in house; host or cells: E. coli BL21 (DE3) Codon Plus RTL
T1 sequence (P13053 1-423): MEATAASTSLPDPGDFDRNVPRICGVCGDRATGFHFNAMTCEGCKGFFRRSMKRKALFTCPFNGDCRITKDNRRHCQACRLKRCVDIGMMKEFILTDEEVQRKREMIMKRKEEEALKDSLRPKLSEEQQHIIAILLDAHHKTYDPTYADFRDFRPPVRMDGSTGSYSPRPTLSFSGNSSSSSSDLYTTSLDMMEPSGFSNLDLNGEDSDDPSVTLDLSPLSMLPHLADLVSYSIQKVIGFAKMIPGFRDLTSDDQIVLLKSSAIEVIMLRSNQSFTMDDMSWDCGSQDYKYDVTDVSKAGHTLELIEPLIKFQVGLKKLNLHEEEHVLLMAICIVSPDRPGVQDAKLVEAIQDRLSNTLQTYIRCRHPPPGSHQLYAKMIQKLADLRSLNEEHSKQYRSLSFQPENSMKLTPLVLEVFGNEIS
Procedure: Full-length recombinant rat receptor was expressed in E. coli BL21 (DE3) Codon Plus RTL cells and purified to homogeneity using two different column chromatography systems. The first system was a nickel affinity resin that utilizes the C-terminal histidine tag on this protein. The protein that was eluted from this resin was further purified using ion exchange chromatography (S-Sepharose Fast Flow). Aliquots of the purified protein were quick frozen in liquid nitrogen and stored at −80° C. until use. For use in binding assays, the protein was diluted in TEDK50 (50 mM Tris, 1.5 mM EDTA, pH7.4, 5 mM DTT, 150 mM KCl) with 0.1% Chaps detergent. The receptor protein and ligand concentration were optimized such that no more than 20% of the added radiolabeled ligand was bound to the receptor.
Radiolabeled and unlabeled ligands were added to 100 mcl of the diluted protein at a final ethanol concentration of ≦10%, mixed and incubated overnight on ice to reach binding equilibrium. The following day, 100 mcl of hydroxylapatite slurry (50%) was added to each tube and mixed at 10-minute intervals for 30 minutes. The hydroxylapaptite was collected by centrifugation and then washed three times with Tris-EDTA buffer (50 mM Tris, 1.5 mM EDTA, pH 7.4) containing 0.5% Titron X-100. After the final wash, the pellets were transferred to scintillation vials containing 4 ml of Biosafe II scintillation cocktail, mixed and placed in a scintillation counter. Total binding was determined from the tubes containing only radiolabeled ligand.

Structure (SMILES)	EC50 [1] [nM]	EC50 [2] [nM]	EC50 ([1]; Homo sapiens) [nM]	HL-60 cell differentiation, times less potent than the natural hormone ([1]; relative to the natural hormone) [times]	transcriptional activity in bone cells (in words) [2]	transcription of the 24-hydroxylase gene, times less potent than 1,25-(OH)2D3 ([2]; relative to 1,25-(OH)2D3) [times]	gene transactivation, lower potency than the native hormone ([2]; relative to the native hormone) [fold]	Ki ([3]; full-length recombinant rat vitamin D receptor, read-out: Ki, competition with [3H]-1,25(OH)2D3 for binding to VDR) [nM]	VDR affinity, times less potent than 1,25-(OH)2D3 ([3]; relative to 1,25-(OH)2D3) [times]	HL-60 cell differentiation activity (in words) ([1]; FIG. 2)	VDR binding activity (in words) ([3]; FIG. 1)
C=C1/C(=C\C=C2/CCC[C@]3(C)[C@@H]([C@H](C)CCCC(C)(C)O)CC[C@@H]23)C[C@@H](O)C[C@@H]1O [1α,25-dihydroxyvitamin D3, reference compound]	2	0.2	–	–	–	–	–	–	–	–	–
C[C@H](CCCC(C)(C)O)C1CCC2/C(=C/C=C3/C[C@@H]4CCC=C4[C@H](O)C3)CCC[C@@]21C (stereo partly drawn) [DO-REVB, 3,2-cyclopentene-1α-25-dihydroxy-19-nor-vitamin D3]	–	10	30	~10	weak transcriptional activity	~20	2	2	~20	–	–
C[C@H](CCCC(C)(C)O)C1CCC2/C(=C/C=C3\C[C@@H]4CCC=C4[C@H](O)C3)CCC[C@@]21C (stereo partly drawn) [DO-REVA, 1,2-cyclopentene-25-hydroxy-19-nor-vitamin D3]	–	> 1000	> 1000	–	weak transcriptional activity; also recorded: measurable transcription activity at the higher concentrations tested; also recorded: measurable transcriptional activity at the higher concentrations tested	–	–	–	–	little to no ability to induce differentiation; also recorded: little to no cellular differentiation activity	little to no binding affinity; also recorded: little to no receptor binding activity
